From US9072675B2, “Non-irritating benzoyl peroxide” (Essential Ingredients, Inc., priority 2010, dated 2015)

System: skin of the infrascapular regions of the back
Assay: Cumulative irritation patch test (12 days, semi-occlusive patches)
Details: 25 subjects, 24 hour semi-occlusive patches over 12 days, daily score capped at 3; maximum 900
Experimental: Twenty-five subjects ages 20-65 were requested to bathe or wash as usual before arrival at the facility. Qualified subjects were then prepared for patch application by having the test sites wiped with alcohol and air-dried. […] Patches were applied for approximately a 24 hour period, then removed and discarded by the subject approximately two hours prior to grading. All induction patches were applied to the same sites unless the degree of reaction (cumulative grade 3) to a material or the adhesive necessitated removal. The skin adjacent to the patches was marked using a surgical marker or other suitable marking pen. Prior to each reapplication, the test sites were evaluated. At the final visit, no patches were applied and the patch sites were graded. Skin responses were evaluated according to the following scale by a technical associate of AMA Laboratories, Inc. (scorer) trained in the evaluation of skin using consistent adequate lighting from a 60-watt incandescent blue day light bulb to illuminate the patch area. All reasonable attempts were made to ensure that the same individual did all of the scoring of reactions to the test articles during the course of the study, and was blinded to the treatment assignments and any previous scores. […]

CCCCCCCCCCCCOS(=O)(=O)[O-].[Na+] [Sodium Lauryl Sulfate]
total cumulative irritancy score: 78
